Like-named read-outs stand apart in the source and are kept apart here. Some results are limits rather than exact numbers.

The values below come from paper PMC3853197 (PLoS ONE, 2013).

For one assay, the system named is F. graminearum PH-1. Type of assay: cell-based, Fusarium graminearum.
Assay [1] has as its system F. graminearum conidia and hyphae. It is filed as cell-based, Fusarium graminearum.

Turning to GRCRGFRRRCFCTTHC [GMA4-C], the “IC100: amount of protein required to inhibit F. graminearum conidial germination completely” value in the assay on F. graminearum PH-1 is reported as less than 6 µM.

As for “RTCENLADKYRGPCFSGCDTHCTTKENAVSGRCRDDFRCWCTKRC [MsDef1, reference compound]”, the “IC100: amount of protein required to inhibit F. graminearum conidial germination completely” value in the assay with F. graminearum PH-1 is more than 6 µM.

On to TAM-GRCAAAARRCFCTTHC [TMR-GMA4-CM], for which the “IC100: amount of protein required to inhibit F. graminearum conidial germination completely” value in the assay on F. graminearum PH-1 is reported as more than 96 µM. Moreover, the antifungal activity result in the assay with F. graminearum PH-1 (96 µM) is recorded as “no antifungal activity”. Also, the “antifungal activity compared with TMR-GMA4-C” value in the assay on F. graminearum PH-1 (16 h) is reported as “significantly lower antifungal activity”. Further, in assay [1], the “binding to the surface of fungal hyphae” value is reported as “failed to bind” and the “entry into fungal cells” value is given as “no indication of entry into fungal cells”.

For the substance TAM-GRCRGFRRRCFCTTHC [TMR-GMA4-C], in the assay with F. graminearum PH-1, the “IC100: amount of protein required to inhibit F. graminearum conidial germination completely” value is on record as 48 µM and the “antifungal activity of labeled compared with untagged/unlabeled protein or peptide” value is recorded as “considerably less antifungal activity”. In the assay on F. graminearum PH-1 (24 µM), the antifungal activity entry is listed as “significant growth inhibition”. Moreover, the “entry into fungal cells” value in assay [1] was “entered the cytoplasm”.
